Assay results taken from patent US7410975B2, “Small molecule toll-like receptor (TLR) antagonists” (Coley Pharmaceutical Group, Inc., priority 2003, dated 2008).

Target: T1, human TLR9 (hTLR9) (Homo sapiens, UniProt Q9NR96)
T1 construct: expressed in transfected cells
T1 sequence (Q9NR96 26-1032): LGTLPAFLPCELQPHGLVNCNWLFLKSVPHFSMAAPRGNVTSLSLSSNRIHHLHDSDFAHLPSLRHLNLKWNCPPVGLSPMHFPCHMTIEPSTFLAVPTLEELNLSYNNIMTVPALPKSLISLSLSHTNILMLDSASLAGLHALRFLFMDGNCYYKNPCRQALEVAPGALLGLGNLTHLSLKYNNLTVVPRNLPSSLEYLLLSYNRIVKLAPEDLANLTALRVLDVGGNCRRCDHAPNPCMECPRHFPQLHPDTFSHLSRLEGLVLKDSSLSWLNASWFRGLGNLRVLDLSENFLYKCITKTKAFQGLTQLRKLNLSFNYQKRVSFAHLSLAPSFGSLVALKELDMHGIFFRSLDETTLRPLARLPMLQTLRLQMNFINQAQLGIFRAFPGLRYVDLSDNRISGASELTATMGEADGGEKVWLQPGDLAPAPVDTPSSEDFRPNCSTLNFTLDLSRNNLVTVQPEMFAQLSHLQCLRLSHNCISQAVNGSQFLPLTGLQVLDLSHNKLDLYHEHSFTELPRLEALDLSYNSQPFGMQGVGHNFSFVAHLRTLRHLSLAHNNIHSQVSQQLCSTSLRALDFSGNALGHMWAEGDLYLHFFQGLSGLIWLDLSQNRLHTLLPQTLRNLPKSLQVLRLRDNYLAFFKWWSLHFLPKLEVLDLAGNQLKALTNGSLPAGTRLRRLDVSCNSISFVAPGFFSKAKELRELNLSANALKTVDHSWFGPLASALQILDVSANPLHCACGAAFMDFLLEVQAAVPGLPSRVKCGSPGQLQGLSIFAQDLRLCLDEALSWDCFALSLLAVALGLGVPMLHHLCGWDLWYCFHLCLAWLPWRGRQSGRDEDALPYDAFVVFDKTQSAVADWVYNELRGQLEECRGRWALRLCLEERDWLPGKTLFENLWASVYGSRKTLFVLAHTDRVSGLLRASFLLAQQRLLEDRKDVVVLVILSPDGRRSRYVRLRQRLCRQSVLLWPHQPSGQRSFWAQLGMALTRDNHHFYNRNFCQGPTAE
Test: Antagonist screen, hTLR9-NFκB-293 cells, 6× NF-κB-luciferase reporter, with EC50 of CpG ODN 2006
Format: cell-based
Details: compound at 0.5, 5, 50 μg/ml; EC50 concentration of CpG ODN 2006; 16 h; NF-κB-luciferase
Procedure, shortened: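 Luciferase fold induction was compared with the ligand-alone baseline, and antagonism was scored by the lowest concentration giving clear down-regulation.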

| Molecule | hTLR9 (inhibitory effect, antagonist score) |
| --- | --- |
| C=CCc1ccccc1OC1(c2ccccc2)OC(=O)c2ccccc21 (centres unmarked) [compound 957] | 12 (compounds for which there was clear down regulation at 5 μg/ml and 50 μg/ml) |
| COC(=O)c1ccc(C2CC(=O)Nc3c2ccc2ccccc32)cc1 (centres unmarked) [compound 965] | — (compounds for which there was no clear down regulation even at 50 μg/ml) |
| O=C(O)c1ccc(C2(c3ccc(C(=O)O)cc3)OC(=O)c3ccccc32)cc1 [compound 970] | 11 (compounds for which there was clear down regulation only at 50 μg/ml) |
| Cc1cc(OC(=O)C2C3CCCCC32)c(C(C)C)cc1C1(c2cc(C(C)C)c(OC(=O)C3C4CCCCC43)cc2C)OC(=O)c2ccccc21 (centres unmarked) [compound 974] | — (compounds for which there was no clear down regulation even at 50 μg/ml) |
| CCN(CC)CCCN(CC(=O)C1c2ccc(Cl)cc2NC(=O)c2ccccc21)C(=O)c1ccccc1 (centres unmarked) [compound 1013] | 11 (compounds for which there was clear down regulation only at 50 μg/ml) |
| O=C1c2ccccc2C(=O)c2c1ccc1c(=O)n(C3CCCCC3)[nH]c21 [compound 1015] | 11 (compounds for which there was clear down regulation only at 50 μg/ml) |
| CCOC(=O)c1cc([N+](=O)[O-])cc2c1-c1ccc([N+](=O)[O-])cc1C2=C(C#N)C#N [compound 1039] | 11 (compounds for which there was clear down regulation only at 50 μg/ml) |
| O=C1c2ccccc2C(=O)c2c1ccc1c(=O)n(-c3ccccc3)[nH]c21 [compound 1042] | 12 (compounds for which there was clear down regulation at 5 μg/ml and 50 μg/ml) |
| O=C(c1cccc2c1-c1ccccc1/C2=N\O)N1CCCCC1 [compound 1050] | 12 (compounds for which there was clear down regulation at 5 μg/ml and 50 μg/ml) |
| NC(=O)c1cccc2c1-c1ccccc1C2 [compound 1132] | — (compounds for which there was no clear down regulation even at 50 μg/ml) |
| NC(=O)c1cc(N)c2c(c1N)C(=O)c1ccccc1C2=O [compound 1158] | 11 (compounds for which there was clear down regulation only at 50 μg/ml) |
| CC(=O)Oc1cc(C)c(C2(c3cc(C(C)C)c(OC(C)=O)cc3C)OC(=O)c3ccccc32)cc1C(C)C [compound 1161] | 12 (compounds for which there was clear down regulation at 5 μg/ml and 50 μg/ml) |
| COC(=O)c1cccc(C(O)(c2ccccc2)c2ccccc2)c1S(=O)(=O)C(C)(C)C [compound 1187] | — (compounds for which there was no clear down regulation even at 50 μg/ml) |
| CCOCCOC(=O)c1cc([N+](=O)[O-])cc2c1-c1c(cc([N+](=O)[O-])cc1[N+](=O)[O-])C2=C(C#N)C#N [compound 1241] | — (compounds for which there was no clear down regulation even at 50 μg/ml) |
| CC1CCN(C(=O)c2cccc3c2-c2ccccc2C3=O)CC1 [compound 1243] | — (compounds for which there was no clear down regulation even at 50 μg/ml) |
| Cc1cccc(C2(c3cccc(C)c3)OC(=O)c3ccccc32)c1 [compound 1308] | 11 (compounds for which there was clear down regulation only at 50 μg/ml) |
| COCCCNC(=O)c1ccc2c(c1N)C(=O)c1ccccc1C2=O [compound 1337] | 12 (compounds for which there was clear down regulation at 5 μg/ml and 50 μg/ml) |
| O=C1Nc2ccccc2Oc2ccc([N+](=O)[O-])cc21 [compound 1352] | 11 (compounds for which there was clear down regulation only at 50 μg/ml) |
| Flunarizinehydrochloride [compound 312] | 12 (compounds for which there was clear down regulation at 5 μg/ml and 50 μg/ml) |
| Maprotilinehydrochloride [compound 346] | 11 (compounds for which there was clear down regulation only at 50 μg/ml) |
| Metixene hydrochloride [compound 491] | 12 (compounds for which there was clear down regulation at 5 μg/ml and 50 μg/ml) |
| Prochlorperazinedimaleate [compound 399] | 12 (compounds for which there was clear down regulation at 5 μg/ml and 50 μg/ml) |
| Trifluoperazinedihydrochloride [compound 313] | 11 (compounds for which there was clear down regulation only at 50 μg/ml) |
